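Each compound was tested at five concentrations against cells in 96-well plates for 48 hours. TGI is the concentration that stops growth completely.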
How the values were obtained:
Test in all cases: NCI anticancer screen, dose series, 48 h
[1] = system: NCI-H23 lung
[2] = system: 786-0 renal
[3] = system: A498 renal
[4] = system: TK-10 renal
[5] = system: HOP-62 NSCLC
[6] = system: U251 CNS
[7] = system: NCI-H460 lung
[8] = system: LOX IMVI melanoma
[9] = system: A549 NSCLC
[10] = system: SF-539 CNS
[11] = system: PC-3 prostate
[12] = system: SR leukemia
[13] = system: MOLT-4 leukemia

SMILES	TGI [1]	TGI [2]	TGI [3]	TGI [4]	TGI [5]	TGI [6]	TGI [7]	TGI [8]	TGI [9]	TGI [10]	TGI [11]	TGI [12]	TGI [13]
CCOC(=O)/C(C(=O)c1ccc[nH]1)=C1/CCCN1C	> 100 µM	> 100 µM	> 100 µM	> 100 µM	> 100 µM	> 100 µM	> 100 µM	> 100 µM	> 100 µM	> 100 µM	> 100 µM	> 100 µM	> 100 µM
CC[C@@]1(O)C(=O)OCc2c1cc1n(c2=O)Cc2c-1nc1ccc(N)cc1c2CC[Si](C)(C)C	< 0.01 µM	< 0.0276 µM	0.0189 µM	3.88 µM	0.368 µM	0.543 µM	< 0.013 µM	< 0.01 µM	0.177 µM	< 0.01 µM	13.7 µM	< 0.01 µM	< 0.01 µM
NC1CC(=O)c2c(I)sc(I)c21 (centres undefined)	35 µM	> 53.4 µM	37.1 µM	37.2 µM	40.1 µM	51.1 µM	66.8 µM	27.2 µM	> 79.5 µM	44.8 µM	42.8 µM	48.4 µM	44.8 µM
CCOc1c2c(cc3c1C(=O)c1c(OC)cccc1C3=O)C=C(OC)CC2	> 25 µM	> 25 µM	> 25 µM	> 25 µM	> 25 µM	> 25 µM	> 25 µM	> 25 µM	> 25 µM	> 25 µM	> 25 µM	22.9 µM	> 25 µM
Cc1ccc2c(c1)CC1(Cc3cc(C)ccc3C1=O)C2=O	> 100 µM	> 100 µM	> 100 µM	> 100 µM	> 100 µM	> 100 µM	> 100 µM	> 100 µM	> 100 µM	> 100 µM	> 100 µM	> 100 µM	> 100 µM
COC(=O)c1sc2c(c1C(=O)OC)C(=Nc1ccc(OC)cc1)SC2=Nc1ccc(OC)cc1	3.12 µM	1.33 µM	3.01 µM	3.01 µM	2.23 µM	1.03 µM	2.79 µM	0.449 µM	2.68 µM	0.889 µM	1.04 µM	> 100 µM	0.494 µM
C1CCC(CC2CCC(NC3=NCCO3)CC2)CC1 (centres undefined)	36.5 µM	29.2 µM	53.3 µM	28.6 µM	39.4 µM	33.3 µM	37.1 µM	30.9 µM	> 100 µM	31.1 µM	31.7 µM	52.6 µM	48.1 µM
COc1cccc(C2c3cc4c(cc3OC(NNS(=O)(=O)c3ccc(C)cc3)C2C)OCO4)c1O (centres undefined)	> 100 µM	> 100 µM	70.4 µM	95.2 µM	53 µM	> 100 µM	82 µM	> 100 µM	> 100 µM	51.8 µM	65.8 µM	26.2 µM	52.1 µM
COC(=O)C(=O)C(C(=O)C(=O)Nc1cc(C)ccc1C)c1nc2ccccc2[nH]c1=O (centres undefined)	> 100 µM	> 100 µM	> 100 µM	> 100 µM	> 100 µM	> 100 µM	> 100 µM	> 100 µM	> 100 µM	> 100 µM	> 100 µM	> 100 µM	> 100 µM
C=CCN(C(C)=O)c1cc(OCc2ccccc2)c2c(c1)c(C)cn2S(=O)(=O)c1ccccc1	> 100 µM	> 100 µM	26.3 µM	> 100 µM	> 100 µM	> 100 µM	> 100 µM	50.1 µM	> 100 µM	> 100 µM	> 78.4 µM	4.21 µM	> 22 µM
O=C1OCOC2(CCCC2)C1c1ccccc1 (centres undefined)	> 100 µM	> 100 µM	> 100 µM	> 100 µM	> 100 µM	> 100 µM	> 100 µM	> 100 µM	> 100 µM	> 100 µM	> 100 µM	> 100 µM	> 100 µM
COC(=O)[C@@H]1CN(C(=O)Cc2ccccc2)C(=O)N1	> 100 µM	> 100 µM	> 100 µM	> 100 µM	> 100 µM	> 100 µM	> 100 µM	> 100 µM	> 100 µM	> 100 µM	> 100 µM	> 100 µM	> 100 µM
Clc1ccc(Cc2nc3cc4ccccc4cc3[nH]2)cc1Cl	71.6 µM	> 100 µM	27.7 µM	39.8 µM	82.9 µM	78.3 µM	> 100 µM	60.8 µM	68.9 µM	41.3 µM	43.4 µM	30.8 µM	4.03 µM
COc1ccc2cc(CNCCCCCCNC(=O)Nc3cccc4ccccc34)ccc2c1	> 100 µM	> 100 µM	> 100 µM	> 100 µM	> 100 µM	> 100 µM	> 100 µM	> 100 µM	> 100 µM	> 100 µM	> 100 µM	> 100 µM	> 100 µM
Cc1n[nH]c(=O)c2c3c([nH]c12)-c1ccccc1C3	> 100 µM	> 100 µM	> 100 µM	> 100 µM	> 100 µM	> 100 µM	> 100 µM	> 100 µM	> 100 µM	> 100 µM	> 100 µM	> 100 µM	> 100 µM
CCc1nnc2sc(-c3ccc(-c4ccccc4[N+](=O)[O-])o3)nn12	> 100 µM	> 100 µM	> 100 µM	> 100 µM	> 100 µM	> 100 µM	> 100 µM	> 100 µM	> 100 µM	89 µM	> 100 µM	72.6 µM	62.8 µM
O=C1N[C@@H]([C@H]2CC[C@H](Cl)CN2)C(=O)N[C@H]1[C@H]1CC[C@H](Cl)CN1	8.76 µM	0.61 µM	15.6 µM	36.6 µM	4.04 µM	12.3 µM	2.88 µM	2.6 µM	76.5 µM	4.27 µM	18 µM	6.18 µM	13.3 µM
O=c1[nH]nc(-c2cccc([N+](=O)[O-])c2)[nH]1	> 100 µM	> 100 µM	> 100 µM	> 100 µM	> 100 µM	> 100 µM	> 100 µM	> 100 µM	> 100 µM	> 100 µM	> 100 µM	> 100 µM	> 100 µM
COc1cc2c(c(O)c1OC)C(O)C1CCC(=O)N1C2c1ccc2c(c1)OCO2 (centres undefined)	> 100 µM	> 100 µM	> 100 µM	> 100 µM	> 100 µM	> 100 µM	> 100 µM	> 100 µM	> 100 µM	> 100 µM	> 100 µM	> 100 µM	> 100 µM
Cc1[nH]c2c(C)c3c([nH]c4ccc(Cl)cc43)c(C)c2c(=O)c1C	18.9 µM	33 µM	51.9 µM	24.1 µM	19.8 µM	23.3 µM	13.5 µM	15.7 µM	10 µM	36 µM	22.4 µM	8.19 µM	8.44 µM
COc1ccc(/C=N/n2c(-c3ccccc3)n[nH]c2=O)c(OC)c1	> 100 µM	> 100 µM	> 73.4 µM	> 71.5 µM	> 68.3 µM	> 100 µM	> 100 µM	> 100 µM	> 100 µM	> 84.9 µM	> 100 µM	> 100 µM	> 100 µM
C[N+]1(CC[N+]2(C)CCCC2c2cccnc2)CCCC1c1cccnc1 (centres undefined)	> 100 µM	90.7 µM	> 100 µM	> 100 µM	> 100 µM	> 100 µM	> 100 µM	> 100 µM	> 100 µM	> 100 µM	> 100 µM	> 100 µM	> 100 µM
O=C1c2ccccc2C(=O)c2c1ccc1c3ccccc3n(-c3ccccc3)c21	34 µM	52.4 µM	71.9 µM	60.1 µM	> 100 µM	> 100 µM	63.8 µM	30.4 µM	58.1 µM	43.6 µM	> 100 µM	41.9 µM	11.1 µM
CCOC(=O)c1cccc(N=NNc2cccc(C(=O)OCC)c2)c1	> 100 µM	42.6 µM	86.1 µM	> 100 µM	32.4 µM	46.6 µM	> 100 µM	> 100 µM	> 100 µM	36.6 µM	> 100 µM	> 100 µM	> 100 µM
COc1cc2c(cc1C)NC(=O)/C2=C/c1c(Cl)[nH]c2ccccc12	23.7 µM	20 µM	16.6 µM	22.1 µM	14.6 µM	16.9 µM	17.1 µM	17.9 µM	> 100 µM	4.15 µM	18.3 µM	23.1 µM	31.3 µM
O=C1c2cccc3cc([N+](=O)[O-])cc(c23)C(=O)N1c1ccc(OCCN2CCCC2)cc1	39.7 µM	33.4 µM	32.2 µM	81.3 µM	76.4 µM	41.3 µM	21.3 µM	34.6 µM	20.6 µM	29.5 µM	> 100 µM	73.2 µM	56.7 µM
CCC(CCCC[C@H]1CC[C@@H]2CC(=O)C[C@H]12)OC (some centres undefined)	> 100 µM	> 100 µM	> 100 µM	> 100 µM	> 100 µM	> 100 µM	> 100 µM	> 100 µM	> 100 µM	> 100 µM	> 100 µM	> 100 µM	> 100 µM
NS(=O)(=O)c1ccc(Nc2c3ccccc3nc3c(C(=O)NC(CO)(CO)CO)cccc23)cc1	0.318 µM	0.0514 µM	0.466 µM	0.311 µM	0.433 µM	0.457 µM	0.248 µM	0.286 µM	0.314 µM	0.407 µM	0.814 µM	> 1 µM	0.195 µM

Reference: PubChem BioAssay (NCI)
